In patent US9555038B2, “Heterocycle-substituted tetracyclic compounds and methods of use thereof for the treatment of viral diseases” (Merck Sharp & Dohme Corp., priority 2013, dated 2017):
Like-named read-outs stand apart in the source and are kept apart here.

Columns and labels:
HCV replicon 1A = assay: Cell-based HCV Replicon Assay A, replicon 1A
How it was run: (§1)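 HCV replicon RNA levels are measured by multiplexed real-time RT-PCR, with cyclophilin as internal control, after 3 days of compound exposure. Compounds are tested in 10 serial dilutions starting between 333.3 nM and 1.667 nM, with 5% FBS in the medium.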

HCV replicon 1AY93H = assay: Cell-based HCV Replicon Assay A, replicon 1AY93H
How it was run: as §1

HCV replicon 2B = assay: Cell-based HCV Replicon Assay A, replicon 2B
How it was run: as §1

HCV replicon 1AQ30D = assay: Cell-based HCV Replicon Assay B, replicon 1AQ30D
How it was run: (§2)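 Replicon cells seeded in 5% FBS; compounds added 24 h later, then 3 days' incubation. Replicon RNA quantified by real-time RT-PCR with genotype-specific primers/probes (NS5B amplicon for 1b). EC50 = concentration raising CT by 1 over projected baseline.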

HCV replicon 1B = assay: Cell-based HCV Replicon Assay B, replicon 1B
How it was run: as §2

[1] = read-out: 1A Y93H IC50, replicon 1AY93H
[2] = read-out: 1A Q30D IC50, replicon 1AQ30D
[3] = Hepatitis C virus, read-out: 1A Q30D IC50 (nM), replicon 1AQ30D
[4] = Hepatitis C virus, read-out: 1A Y93H IC50 (nM), replicon 1AY93H
[5] = Hepatitis C virus, read-out: 2B IC50 (nM), replicon 2B

SMILES	IC50 (HCV replicon 1A)	IC50 (HCV replicon 1AY93H; [1])	IC50 (HCV replicon 2B; read-out: 2B IC50, replicon 2B)	IC50 (HCV replicon 1AQ30D; [2])	IC50 (HCV replicon 1B)	IC50 (HCV replicon 1B; Hepatitis C virus)	IC50 (HCV replicon 1AQ30D; [3])	IC50 (HCV replicon 1A; Hepatitis C virus)	IC50 (HCV replicon 1AY93H; [4])	IC50 (HCV replicon 2B; [5])
COC(=O)N[C@H](C(=O)N1CCC[C@H]1c1ncc(-c2cc(F)c3c(c2)OC(c2cnc(Nc4ccc(F)cc4)s2)n2c-3cc3cc(-c4cnc([C@@H]5CCCN5C(=O)[C@@H](NC(=O)OC)C(C)C)[nH]4)ccc32)[nH]1)C(C)C (single isomer, unassigned) [Compound 535]	3.1 pM	0.084 nM	0.012 nM	0.172 nM	3.2 pM	–	–	–	–	–
COC(=O)NC(C(=O)N1CCC[C@H]1c1ncc(-c2ccc3c(c2)cc2n3C(c3cnc(CC(C)C)s3)Oc3cc(-c4cnc([C@@H]5CCCN5C(=O)[C@@H](NC(=O)OC)C(C)C)[nH]4)cc(F)c3-2)[nH]1)C1CCOC(C)(C)C1 (single isomer, unassigned) [Compound 544]	3.1 pM	0.005 nM	0.006 nM	0.051 nM	–	3.6 pM	–	–	–	–
COC(=O)NC(C(=O)N1CCC[C@H]1c1ncc(-c2ccc3c(c2)cc2n3C(c3cnc(CC(C)C)s3)Oc3cc(-c4cnc([C@@H]5CCCN5C(=O)[C@@H](NC(=O)OC)C(C)C)[nH]4)cc(F)c3-2)[nH]1)C1CCOC(C)(C)C1 (single isomer, unassigned) [Compound 545]	2.6 pM	0.004 nM	0.006 nM	0.015 nM	2.8 pM	–	–	–	–	–
COC(=O)NC(C(=O)N1CCC[C@H]1c1ncc(-c2ccc3c(c2)cc2n3C(c3cnc(CC(C)C)s3)Oc3cc(-c4cnc([C@@H]5CCCN5C(=O)[C@@H](NC(=O)OC)C(C)C)[nH]4)cc(F)c3-2)[nH]1)C1C[C@@H](C)O[C@@H](C)C1 (single isomer, unassigned) [Compound 547]	2.8 pM	0.005 nM	0.006 nM	–	–	1.8 pM	0.028 nM	–	–	–
CCCc1ncc(C2Oc3cc(-c4cnc([C@@H]5CCCN5C(=O)[C@@H](NC(=O)OC)C(C)C)[nH]4)cc(F)c3-c3cc4cc(-c5cnc([C@@H]6CCCN6C(=O)[C@@H](NC(=O)OC)C(C)C)[nH]5)ccc4n32)s1 (stereo partly shown) [Compound 15]	–	0.0059 nM	0.025 nM	–	3 pM	–	0.118 nM	2.9 pM	–	–
COC(=O)N[C@H](C(=O)N1CCC[C@H]1c1nc(-c2cc(F)c3c(c2)OC(c2cnc(-c4cnccn4)s2)n2c-3cc3cc(-c4cnc([C@@H]5CCCN5C(=O)[C@@H](NC(=O)OC)C(C)C)[nH]4)ccc32)c[nH]1)C(C)C (stereo partly shown) [Compound 424]	–	–	–	–	–	694 pM	0.058 nM	1.9 pM	0.0554 nM	0.003 nM
COC(=O)NC(C(=O)N1CCC[C@H]1c1ncc(-c2ccc3c(c2)cc2n3C(c3cnc(CC(C)(C)C)s3)Oc3cc(-c4cnc([C@@H]5CCCN5C(=O)[C@@H](NC(=O)OC)C(C)C)[nH]4)cc(F)c3-2)[nH]1)C1CCOC(C)(C)C1 (stereo partly shown) [Compound 443]	–	–	–	–	–	3.1 pM	0.028 nM	3.1 pM	0.008 nM	0.006 nM
COC(=O)N[C@H](C(=O)N1CCC[C@H]1c1ncc(-c2cc(F)c3c(c2)OC(c2cnc(C4CCCCC4)s2)n2c-3cc3cc(-c4cnc([C@@H]5CCCN5C(=O)[C@@H](NC(=O)OC)C(C)C)[nH]4)ccc32)[nH]1)C(C)C (stereo partly shown) [Compound 527]	–	0.005 nM	0.014 nM	–	–	2.9 pM	0.065 nM	2.4 pM	–	–
